The assay concerns the target Endothelin-1 receptor (Oryctolagus cuniculus). Kind of assay: Tested for antagonistic activity against Endothelin A receptor in the rabbit renal artery vascular smooth muscle cells.

Molecules are shown by their SMILES.

Regarding `COc1ccc(CC2=C(c3ccc(Cl)c(Cl)c3)C(=O)OC2(O)c2ccc(OC)cc2)cc1` (configuration not stated) [3-(3,4-Dichloro-phenyl)-5-hydroxy-4-(4-methoxy-benzyl)-5-(4-methoxy-phenyl)-5H-furan-2-one], the IC50 came out at 310 nM. That is a sub-micromolar value.
Under `COc1ccc(C2(O)OC(=O)C(c3ccc4c(c3)OCO4)=C2Cc2ccc(OC)c(C)c2)cc1` (configuration not stated) [3-Benzo[1,3]dioxol-5-yl-5-hydroxy-4-(4-methoxy-3-methyl-benzyl)-5-(4-methoxy-phenyl)-5H-furan-2-one] stands 6 nM.
